# Read-outs that look alike come from different tables or passages of the source.
# Target: T1, CynT2 (Escherichia coli, UniProt P61517)
# T1 construct: gene can; oligomer not determined (dimer or tetramer stated for bacterial beta-CAs in general)
# Assay: stopped-flow CO2 hydrase assay, phenol red
# Type: biochemical
# T1 sequence (P61517 whole entry): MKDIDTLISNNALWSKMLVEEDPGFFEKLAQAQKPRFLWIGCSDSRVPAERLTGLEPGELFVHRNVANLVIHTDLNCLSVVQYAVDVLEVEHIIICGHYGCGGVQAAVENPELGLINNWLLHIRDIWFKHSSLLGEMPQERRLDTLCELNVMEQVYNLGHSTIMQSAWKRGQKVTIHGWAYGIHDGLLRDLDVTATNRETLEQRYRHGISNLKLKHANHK
SMILES,Ki (read-out: KI *(nM) / CynT2) [nM],Ki [nM]
"CCN1CCCC1CNC(=O)c1cc(S(N)(=O)=O)ccc1OC (centres unmarked) [SLP, Sulpiride]",97,
"NS(=O)(=O)c1cc2c(cc1Cl)NCNS2(=O)=O [HCT, Hydrochlorothiazide]",5010,
"Nc1cccc(S(N)(=O)=O)c1 [compound 1, 1]",705,
"Nc1nccc(Nc2ccc(S(N)(=O)=O)cc2)n1 [compound 19, 19]",416,
"NS(=O)(=O)c1ccc(CCO)cc1 [compound 17, 17]",502,
"Cc1ccc(S(N)(=O)=O)cc1 [compound 4, 4]",3010,
"Nc1ccc(S(=O)(=O)Nc2ccc(S(N)(=O)=O)cc2)cc1 [compound 22, 22]",93,
"NCCc1ccc(S(N)(=O)=O)cc1 [compound 6, 6]",,3320
"Nc1ccc(S(=O)(=O)NCc2ccc(S(N)(=O)=O)cc2)cc1 [compound 23, 23]",322,
"Nc1cc(C(F)(F)F)c(S(N)(=O)=O)cc1S(N)(=O)=O [compound 11, 11]",6250,
"CC1(C)O[C@@H]2[C@@H](CO[C@@]3(COS(N)(=O)=O)OC(C)(C)O[C@@H]23)O1 [TPM, Topiramate]",3360,
"Nc1nnc(S(N)(=O)=O)s1 [compound 13, 13]",4120,
"NS(=O)(=O)c1ccc(CO)cc1 [compound 16, 16]",2340,
"Nc1cc(Cl)c(S(N)(=O)=O)cc1S(N)(=O)=O [compound 12, 12]",4390,
"NS(=O)(=O)c1ccc(S(=O)(=O)Nc2cccc3c(Cl)c[nH]c23)cc1 [IND, Indisulam]",2390,
"NS(=O)(=O)c1cc(Cl)cc(Cl)c1O [compound 10, 10]",8560,
"CC(=O)N=c1sc(S(N)(=O)=O)nn1C [MZA, Methazolamide]",480,
"Nc1ccc(S(N)(=O)=O)cc1F [compound 7, 7]",> 10000,
"Nc1ccc(S(=O)(=O)NCCc2ccc(S(N)(=O)=O)cc2)cc1 [compound 24, 24]",82,

SMILES,Ki (read-out: KI *(nM) / CynT2) [nM],Ki [nM]
"NCc1ccc(S(N)(=O)=O)cc1 [compound 5, 5]",2840,
"Nc1ccc(S(N)(=O)=O)cc1Br [compound 9, 9]",2710,
"O=C1NS(=O)(=O)c2ccccc21 [SAC, Saccharin]",6690,
"NC(N)=Nc1nc(CSCCC(N)=NS(N)(=O)=O)cs1 [FAM, Famotidine]",2770,
"NS(=O)(=O)NCCNc1nonc1C(=NO)Nc1ccc(F)c(Br)c1 [EPA, Epacadostat]",2560,
"Nc1ccc(S(N)(=O)=O)cc1 [compound 2, 2]",790,
"NS(=O)(=O)c1nnc(NS(=O)(=O)c2ccccc2)s1 [BZA, Benzolamide]",276,
"Nc1ccc(S(=O)(=O)Nc2nnc(S(N)(=O)=O)s2)cc1 [compound 20, 20]",726,
"NS(=O)(=O)Cc1noc2ccccc12 [ZNS, Zonisamide]",3190,
"CCN[C@H]1CN(CCCOC)S(=O)(=O)c2sc(S(N)(=O)=O)cc21 [BRZ, Brinzolamide]",2050,
"NS(=O)(=O)c1cc(Cl)c(Cl)c(S(N)(=O)=O)c1 [DCP, Dichlorophenamide]",> 10000,
"Cn1nc(S(N)(=O)=O)sc1=N [compound 14, 14]",440,
"NS(=O)(=O)c1ccc(N2CCCCS2(=O)=O)cc1 [SLT, Sulthiame]",285,
"Cc1onc(-c2ccccc2)c1-c1ccc(S(N)(=O)=O)cc1 [VLX, Valdecoxib]",2750,
"NS(=O)(=O)c1ccc(O)cc1 [compound 15, 15]",6440,
"Nc1ccc(S(N)(=O)=O)cc1Cl [compound 8, 8]",> 10000,
"NS(=O)(=O)c1ccc(C(=O)O)cc1 [compound 18, 18]",205,
"Cc1ccc(-c2cc(C(F)(F)F)nn2-c2ccc(S(N)(=O)=O)cc2)cc1 [CLX, Celecoxib]",1890,
"NS(=O)(=O)c1cccc(S(N)(=O)=O)c1 [compound 3, 3]",457,
